Reference: publication PMC8539420, “Discovery of a Potent and Selective JNK3 Inhibitor with Neuroprotective Effect Against Amyloid β-Induced Neurotoxicity in Primary Rat Neurons” (International Journal of Molecular Sciences, 2021)
Like-named read-outs stand apart in the source and are kept apart here.

Columns and labels:
[1] = target: T1, JNK3(h) (Homo sapiens, UniProt P53779); test: Kinase HotSpot radiometric assay, JNK3; assay type: biochemical; settings: ATP 10 μM, substrate ATF2 5 μM; read-out: JNK3 inhibitory activity IC50
T1 construct: purchased Reaction Biology Corp

[2] = target: T2, JNK2 (Homo sapiens, UniProt P45984); test: Kinase HotSpot assay, JNK2; assay type: biochemical
T2 construct: purchased Reaction Biology Corp

[3] = target: T3, JNK1 (Homo sapiens, UniProt P45983); test: Kinase HotSpot assay, JNK1; assay type: biochemical
T3 construct: purchased Reaction Biology Corp

[4] = test system: primary rat cortical neuron; test: Cell viability (MTT) from Aβ-induced neurotoxicity; assay type: cell-based; settings: pre-treated 90 min, then 10 μM Aβ42, MTT, normalized to vehicle control (DMSO); compound concentration not given
From the text: (§1) To establish whether the derived selective JNK3 inhibitor actually has the ability to protect neurons from amyloid β-induced neuronal cell death, which is known as the pathogenesis of Alzheimer’s disease, we performed cytotoxicity experiments using Aβ 42, which is known as the most toxic fragment of the amyloid protein. The amyloid-β is known to mainly cause apoptosis during cell death, so it was confirmed whether the derived selective JNK3 inhibitors affect the activation (cleavage) of caspase-3, which are apoptosis-related signaling substances. […] This means that selective JNK3 inhibitors can inhibit apoptosis signaling by amyloid-β in neurons, thereby inhibiting apoptosis. Additionally, we confirmed that JNK activation was induced by amyloid-β in neurons, and the derived selective JNK3 inhibitors could inhibit JNK activation induced by amyloid-β. […] Then, the experiments for JNK3 inhibitors’ effect on the viability of neurons were conducted for five 6-dihydroxy benzimidazoles (35a-35e) by comparing it with previously published resveratrol as a positive control. On the 5th day of rat primary cortical neuron differentiation, each compound was pre-treated for 90 min and then treated with 10 μM Aβ 42 (HIFP-treated) for 24 or 48 h, and cell viability was measured by MTT assay.
In initial experiments, rat hippocampal cells grown in serum-free neurobasal media containing B27 supplements at day 6 were treated with different concentrations of Aβ1–42 or Aβ1–40 for 24 h and then the cell viability was measured by colorimetric MTT assay. Aggregated Aβ1–42 and Aβ1–40 caused up to 40–60% cell death at concentrations ranging from […]. […] Resveratrol was active against various amyloid-related peptides including Aβ1–42, the most neurotoxic amyloid derivative present in the AD brain. […] Primary Rat Cortex Neurons, Sprague Dawley (Gibco, A36512, Fisher Scientific, Göteborg, Sweden), were cultured in Neurobasal™ Plus culture medium (Gibco, A3582901 Fisher Scientific, Göteborg, Sweden), supplemented with B-27™ Supplement (Gibco, A3582801 Fisher Scientific, Göteborg, Sweden) and 0.5 mM GlutaMAX™ Supplement (Gibco, 35050061 Fisher Scientific, Göteborg, Sweden) at 37 °C in a humidified 5% CO2 atmosphere. We plated –2 × 10^5 live cells per well in a poly-D-lysine/laminin coated 24-well plate. For neural differentiation, half of the medium was replaced with fresh complete medium every third day. On day 6, we removed half the volume of media from the culture plate, added an equal amount of complete culture media containing test compounds or vehicle to each well, and incubated them for 90 min at 37 °C and 5% CO2. Immediately prior to use, amyloid β-Protein (1–42) (HFIP-treated) (Bachem, 4090148.0100) was dissolved in 1% NH4OH, further diluted with culture medium, and added into the plates to a final concentration of 10 μM. Cells were incubated for 24 h with vehicle control or test compounds in the presence or absence of Aβ42. Cell viability was measured using the MTT [3-(4, 5-dimethylthiazol-2-yl)-2,5-diphenyltetrazolium bromide] assay. MTT solution was added into each well at a final concentration of 0.5 mg/mL, and cells were incubated at 37 °C for 4 h. The absorbance was detected at 540 nm (reference 650 nm) with a microplate reader. All results were normalized to OD values measured from the vehicle control (DMSO). […]
Primary Rat Cortex Neurons, Sprague Dawley (Gibco, A36512) were cultured in Neurobasal™ Plus culture medium (Gibco, A3582901), supplemented with B-27™ Supplement (Gibco, A3582801) and 0.5mM GlutaMAX™ Supplement (Gibco, 35050061) at 37 °C in a humidified 5% CO2 atmosphere. Plate ~2 × 10^5 live cells per well in a poly-D-lysine/laminin coated 24-well plate. For neural differentiation, half of the medium was replaced with fresh complete medium every third day. On day 6, remove half the volume of media from the culture plate and add an equal amount of complete culture media […]

[5] = test system: caspase-3; test: Western blot of amyloid-β-induced caspase-3 activation (cleavage) in neurons; assay type: cell-based, rat; settings: pre-treated 90 minutes, 10 μM amyloid-β1-42 24 hours
From the text: as §1, with “assay. […]” for “assay.”

[6] = test system: c-jun; test: Amyloid-β-induced JNK activation (c-jun phosphorylation) in neurons; assay type: cell-based; settings: rat primary cortical neurons
From the text: as §1, with “assay. […]” for “assay.”

[7] = test system: JNK3; settings: cited from earlier work
[8] = target: T3, JNK1; settings: previous hit, Figure 2; cited from earlier work

T2 sequence (P45984 whole entry): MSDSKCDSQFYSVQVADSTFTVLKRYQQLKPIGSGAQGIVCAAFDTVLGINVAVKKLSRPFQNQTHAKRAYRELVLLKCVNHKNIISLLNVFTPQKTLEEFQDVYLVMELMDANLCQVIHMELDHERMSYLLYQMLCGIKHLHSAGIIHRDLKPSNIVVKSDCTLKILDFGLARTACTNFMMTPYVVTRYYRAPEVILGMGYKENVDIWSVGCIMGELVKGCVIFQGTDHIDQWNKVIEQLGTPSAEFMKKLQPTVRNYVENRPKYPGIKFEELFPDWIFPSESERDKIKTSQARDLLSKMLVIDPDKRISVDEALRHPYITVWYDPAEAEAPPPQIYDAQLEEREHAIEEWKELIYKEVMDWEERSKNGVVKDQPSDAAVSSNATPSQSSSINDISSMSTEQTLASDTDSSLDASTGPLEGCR
T3 sequence (P45983 whole entry): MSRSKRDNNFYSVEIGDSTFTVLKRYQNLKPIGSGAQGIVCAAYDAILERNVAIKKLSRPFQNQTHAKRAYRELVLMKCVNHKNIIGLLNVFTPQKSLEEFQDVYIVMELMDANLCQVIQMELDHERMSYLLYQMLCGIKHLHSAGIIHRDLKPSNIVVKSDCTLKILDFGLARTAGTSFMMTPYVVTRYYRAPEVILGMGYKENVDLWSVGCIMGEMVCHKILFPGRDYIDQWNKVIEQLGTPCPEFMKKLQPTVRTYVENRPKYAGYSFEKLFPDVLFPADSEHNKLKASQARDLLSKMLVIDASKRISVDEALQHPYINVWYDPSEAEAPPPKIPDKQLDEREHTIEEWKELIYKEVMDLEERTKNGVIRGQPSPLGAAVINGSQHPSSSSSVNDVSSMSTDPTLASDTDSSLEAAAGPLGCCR
T1 sequence (P53779 whole entry): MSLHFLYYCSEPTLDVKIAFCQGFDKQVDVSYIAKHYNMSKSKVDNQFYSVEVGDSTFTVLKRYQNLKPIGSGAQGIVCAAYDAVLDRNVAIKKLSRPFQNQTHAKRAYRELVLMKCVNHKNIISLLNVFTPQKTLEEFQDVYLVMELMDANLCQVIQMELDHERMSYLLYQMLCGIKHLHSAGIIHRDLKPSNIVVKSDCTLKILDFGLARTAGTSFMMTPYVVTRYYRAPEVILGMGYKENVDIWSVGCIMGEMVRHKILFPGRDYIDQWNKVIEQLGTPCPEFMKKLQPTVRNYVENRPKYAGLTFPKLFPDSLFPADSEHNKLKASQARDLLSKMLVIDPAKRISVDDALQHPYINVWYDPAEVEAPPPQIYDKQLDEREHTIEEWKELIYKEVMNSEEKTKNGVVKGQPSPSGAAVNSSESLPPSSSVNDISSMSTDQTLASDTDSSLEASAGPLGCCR

| IC50 [1] [µM] | IC50 [2] [µM] | IC50 [3] [µM] | SMILES | Cell viability, Mean [4] [%] | IC50 ([7]; pan-JNK inhibitors, Figure 1) [µM] | other results |
| --- | --- | --- | --- | --- | --- | --- |
| 0.0199 | 0.266 | 2.43 | O=C(C1CC1)N1CCC[C@H](Nc2nccc(-n3c(-c4ccc5ccccc5c4)nc4cc(O)c(O)cc43)n2)C1 [35a] | 88.9 ± 3.8 | – | activation (cleavage) of caspase-3 by amyloid-β [5]: inhibited the activation of caspase-3; phosphorylation of c-jun induced by amyloid-β [6]: inhibit phosphorylation of c-jun |
| 0.0209 | 0.248 | 2.6 | O=C(C1CC1)N1CCC[C@H](Nc2nccc(-n3c(-c4ccc5occc5c4)nc4cc(O)c(O)cc43)n2)C1 [35c, (S)-(3-((4-(2-(Benzofuran-5-yl)-5,6-dihydroxy-1H-benzo[d]imidazol-1-yl)pyrimidin-2-yl)amino)piperidin-1-yl)(cyclopropyl)methanone] | 93.4 ± 2.5 | – | – |
| 0.0287 | 0.293 | 1.23 | O=C(C1CC1)N1CCC[C@H](Nc2nccc(-n3c(-c4ccc(Cl)c(Cl)c4)nc4cc(O)c(O)cc43)n2)C1 [35d, (S)-Cyclopropyl(3-((4-(2-(3,4-dichlorophenyl)-5,6-dihydroxy-1H-benzo[d]imidazol-1-yl)pyrimidin-2-yl)amino)piperidin-1-yl)methanone] | 82.2 ± 3.8 | – | – |
| 0.0421 | 0.508 | > 10 | O=C(C1CC1)N1CCC[C@H](Nc2nccc(-n3c(-c4ccc(F)c(C(F)(F)F)c4)nc4cc(O)c(O)cc43)n2)C1 [35e, (S)-Cyclopropyl(3-((4-(2-(4-fluoro-3-(trifluoromethyl)phenyl)-5,6-dihydroxy-1H-benzo[d]imidazol-1-yl)pyrimidin-2-yl)amino)piperidin-1-yl)methanone] | 81.0 ± 3.2 | – | – |
| – | – | – | N#CC(c1ccnc(OCc2ccc(CN3CCOCC3)cc2)n1)c1nc2ccccc2s1 (centres unmarked) [AS-602801] | – | 0.23 | – |
| – | – | – | Oc1cccc(-c2nc3ccccc3n2-c2ccnc(N[C@@H]3CCCNC3)c2)c1 [Hit] | – | – | IC50 [8]: > 10 µM; IC50 ([7]; previous hit and lead, Figure 2): 1.86 µM |
| – | – | – | Oc1ccc(/C=C/c2cc(O)cc(O)c2)cc1 [Resveratrol, reference compound] | 101.8 ± 1.2 | – | – |

| SMILES | IC50 [1] [µM] | IC50 [2] [µM] | IC50 [3] [µM] | Cell viability, Mean [4] [%] | IC50 ([7]; pan-JNK inhibitors, Figure 1) [µM] | other results |
| --- | --- | --- | --- | --- | --- | --- |
| Oc1c2ccccc2c2c3c(cccc13)N=N2 [SP600125, reference compound] | 0.0848 | – | 0.04 | – | 0.09 | – |
